Reference: PubChem BioAssay AID720512 (Broad Institute, 2013)
Active and inactive are the calls of the source. No rule for the calls is given here.

Target: Toxin B (TcdB) glycohydrolase, Clostridioides difficile 630
Test: TcdB glycohydrolase inhibitors, dose response, biochemical, cherry-pick, plate reader (AID 720512)
Conditions: recombinant TcdB glycohydrolase activity; for activity change, negative = inhibition: at 19.5 µM (top of the series)

Row | Compound | activity change, negative = inhibition | AC50
1 | CCNC(=O)C[C@H]1CC[C@@H]2[C@@H](COc3ccc(NC(C)=O)cc3C(=O)N2C)O1 | inactive | 
2 | Oc1ccc(-c2cn3ccccc3n2)cc1 |  | 12.1 µM
3 | O=C(CSc1nc2ccccc2[nH]1)NC1CCCc2ccccc21 (stereo unspecified) | inactive | 
4 | COc1cc(/C=N/NC(=O)c2c(C)nc3ccc(Cl)cn23)cc(OC)c1OC | inactive | 
5 | Nn1c(SCc2ccccc2F)nnc1-c1ccccn1 | inactive | 
6 | CCOC(CCNC(=O)c1cn(CCOC)c(=O)c2c1c1ccccc1n2C)OCC | inactive | 
7 | COc1cc(N=Nc2c(C)n(C)n(-c3ccccc3)c2=O)ccc1N | inactive | 
8 | Cc1ccc(NNC(=O)C2CCC2)cc1C | inactive | 
9 | CCN(CCN(C)C)C(=O)C1CCN(S(=O)(=O)c2c(C)noc2/C=C/c2ccccc2F)CC1 | inactive | 
10 | C/C(=N\NC(N)=S)c1ccc2c(c1)OCCO2 | inactive | 
11 | O=C(O)c1cc(S(=O)(=O)Nc2ccc3cn[nH]c3c2)ccc1Cl | inactive | 
12 | Cc1cc(N/N=C/c2ccc(O)cc2)c2cccc(C)c2n1 |  | > 39 µM (inactive)
13 | S=c1[nH]nc2ccccn12 | inactive | 
14 | C=CC[C@@H](CC(=O)N(CCO)Cc1ccccc1)C(=O)NC[C@@H](OC(=O)[C@@H](CC=C)CC(=O)OC(C)(C)C)c1ccccc1 | inactive | 
15 | COc1ccc(-c2ccc3c(c2)[C@@H]2[C@@H](CCN2C(=O)C2CC2)[C@H](CO)N3C)cc1 | inactive | 
16 | CCOc1ccccc1/C=C/c1onc(C)c1S(=O)(=O)N1CCC(C(=O)N2CCCCCC2)CC1 | inactive | 
17 | Cc1ccc(C)c2c1cc(C)c1nnc(SCC(=O)NCc3ccc4c(c3)OCO4)n12 |  | > 39 µM (inactive)
18 | COc1cc2ccccc2cc1C(=O)N/N=C/c1cccs1 | inactive | 
19 | COc1cccc(C(=O)C2CCCN(Cc3ccc(F)cc3)C2)c1 (stereo unspecified) | inactive | 
20 | CCCCn1c(CN2CCN(C(=O)c3ccco3)CC2)nc2c1c(=O)n(C)c(=O)n2C | inactive | 
21 | COc1ccc(C2=NS(=O)(=O)N(C)C(C(=O)N3CCN(C)CC3)=C2)cc1 | inactive | 
22 | S=c1nc(-c2cccc(Cl)c2)[nH][nH]1 | inactive | 
23 | CCOc1ccccc1/C=C/c1onc(C)c1S(=O)(=O)N1CCC(C(=O)NC(C)C)CC1 | inactive | 

Row | Compound | activity change, negative = inhibition | AC50
24 | COc1ccc(CNC(=O)C2=CC(c3ccc(OC)c(OC)c3)=NS(=O)(=O)N2C)cc1 | inactive | 
25 | CC(=O)N1CCN(c2ccc(S(C)(=O)=O)cc2[N+](=O)[O-])CC1 | inactive | 
26 | CCCC(=O)Nc1ccc2c(c1)OC[C@H](C)N(CC1CCCC1)C[C@H](C)[C@@H](OC)CN(C)C2=O | inactive | 
27 | Cc1ccc(/C=C/c2onc(C)c2S(=O)(=O)N2CCC(C(=O)N3CCN(C)CC3)CC2)cc1 | inactive | 
28 | Cc1ccc(C)c2nc(Cl)c(C3NC(=O)c4ccccc4N3)cc12 (stereo unspecified) | inactive | 
29 | NNC(=O)CNC(=O)Nc1n[nH]c(=S)s1 | inactive | 
30 | O=C(NNc1ccc(-c2csnn2)cc1)c1cc(Cl)cc(Cl)c1 | inactive | 
31 | Cc1onc(-c2ccccc2)c1C(=O)N(Cc1ccco1)Cc1cccs1 | inactive | 
32 | Cc1cc(C)c(C)c(S(=O)(=O)N2CCCCC2C(=O)O)c1C (stereo unspecified) | inactive | 
33 | O=C(O)c1ccc(-n2nnc3ccccc32)c([N+](=O)[O-])c1 | inactive | 
34 | CCOC(=O)N1CCC(c2cc(=O)n3[nH]c(-c4ccccc4)cc3n2)CC1 | inactive | 
35 | CCC(=O)N1CC[C@@H]2[C@H]1c1cc(-c3ccc(OC)cc3)ccc1N(C)[C@H]2CO |  | > 42 µM (inactive)
36 | CC12CCC3C(=CCc4cc(O)ccc43)C1CC(=NO)C2O (stereo unspecified) | inactive | 
37 | CCOC(=O)c1ccc(N=c2sc(C(=O)OC)cc(=O)n2CCCN2CCOCC2)cc1 | inactive | 
38 | O=C(C[C@@H]1CC[C@H]2[C@@H](COC[C@@H](O)CN2Cc2ccc(Oc3ccccc3)cc2)O1)Nc1nccs1 | inactive | 
39 | Cc1ccc2c(c1)/C(=C/c1ccccc1C)C(=O)N2 | inactive | 
40 | Cn1c(=O)[nH]c(=O)c2c1[nH]c(=S)n2Cc1ccc(Cl)cc1 | inactive | 
41 | C=CCNS(=O)(=O)c1nc(C)c(Cl)c(C)c1C#N | inactive | 
42 | Cc1c(CCCC(=O)O)sc(N)c1C(=O)c1cccc(C(F)(F)F)c1 | inactive | 
43 | CC(C)NC(=O)N1CC[C@@H]2[C@H]1c1cc(-c3ccc(F)cc3)ccc1N(C)[C@H]2CO | inactive | 
44 | Nc1nc(CCOc2ccc(F)cc2)cs1 | inactive | 
45 | CCOC(=O)c1c(C)[nH]c(C)c1C(=O)COC(=O)/C=C/c1ccco1 | inactive | 
46 | O=C(CSc1nc2cc(Cl)ccc2s1)c1ccco1 | inactive | 

Row | Compound | activity change, negative = inhibition | AC50
47 | O=C(C[C@H]1C[C@H]2c3cc(NC(=O)c4ccc5c(c4)OCO5)ccc3O[C@H]2[C@@H](CO)O1)NCc1cccc(F)c1 | inactive | 
48 | Oc1ccc(Cc2ccc(Cl)cc2)c(O)c1 | inactive | 
49 | CC12CCC(=O)N1C(C(=O)OCc1c(Cl)cccc1Cl)CS2 (stereo unspecified) | inactive | 
50 | CCNC(=O)C[C@@H]1CC[C@H]2[C@H](COc3ccc(NC(C)=O)cc3C(=O)N2C)O1 | inactive | 
51 | O=S(=O)(Cc1cccc(F)c1)c1c[nH]c2ccccc12 | inactive | 
52 | Cc1ccc(NC(=O)C2OCCc3ccccc32)cc1C (stereo unspecified) | inactive | 
53 | NC(=O)c1ccc(NC(=O)CSc2nnc(C3CC3)n2C2CC2)cc1 | inactive | 
54 | Nc1ccccc1-c1nc2ccncc2[nH]1 | inactive | 
55 | NC1=NC[C@H](Cc2ccc(O)cc2)N1CCc1cc(C(F)(F)F)cc(C(F)(F)F)c1 | inactive | 
56 | O=C(CC(=O)N/N=C/c1ccc(O)cc1)N/N=C/c1ccc(O)cc1 | inactive | 
57 | CC(C)(C)N1C(=O)c2ccc(C(=O)Nc3ccc(O)cc3)cc2C1=O | inactive | 
58 | Cc1ccc(CN2C(=O)CN=C(c3ccccc3)c3ccccc32)cc1 | inactive | 
59 | Oc1ccc(/C=N/Nc2ncnc3nc[nH]c23)cc1 | inactive | 
60 | CCOC(=O)c1[nH]nc(-c2cc(CC)c(O)cc2O)c1-c1cscn1 |  | > 39 µM (inactive)
61 | Oc1ccc(/C=N/N2CCN(Cc3ccccc3)CC2)cc1 |  | > 39 µM (inactive)
62 | O=C(N/N=C/c1ccc(O)c(O)c1)C1CC1 | inactive | 
63 | CC1=NCCc2c1[nH]c1cc(O)ccc21 |  | 9.94 µM
64 | Cc1ccc(C2=NS(=O)(=O)N(C)C(C(=O)NCc3cccs3)=C2)cc1 | inactive | 
65 | O=C(Cc1ccccc1)NNC(=S)NC(=O)c1cccnc1 | inactive | 
66 | Cc1cnc([N+](=O)[O-])n1CCOC(=O)NC(=O)c1ccc(F)cc1 | inactive | 
67 | CC1(C)Cc2nc(Cl)c(C#N)cc2CO1 | inactive | 
68 | COc1ccc(C=NNC(=O)c2cc(C)oc2C)cc1O | inactive | 
69 | Cc1nc2ccccc2nc1OCC(=O)Nc1ccc(F)cc1 | inactive | 

Row | Compound | activity change, negative = inhibition | AC50
70 | Cc1cc(C)c(S(=O)(=O)c2ccc(Cl)cc2C)c(Cl)n1 | inactive | 
71 | COC(=O)C(C(=O)OC)C(CC(=O)c1ccc(Br)cc1)c1ccccc1 (stereo unspecified) | inactive | 
72 | CCN(CC)CCNC(=O)C1CCN(S(=O)(=O)c2c(C)noc2/C=C/c2ccccc2F)CC1 | inactive | 
73 | CCOc1ccccc1/C=C/c1onc(C)c1S(=O)(=O)N1CCC(C(=O)NC)CC1 |  | > 39 µM (inactive)
74 | O=C(O)c1ccc(-c2nnc(-c3ccccc3)o2)cc1 | inactive | 
75 | CN(C)c1ccc(/C=C/c2cccc[n+]2[O-])cc1 | inactive | 
76 | CCNC(=O)C[C@H]1CC[C@@H]2[C@H](COc3ccc(NC(=O)c4ccc5c(c4)OCO5)cc3C(=O)N2C)O1 |  | > 42 µM (inactive)
77 | O=C(NCCc1ccc(Cl)cc1)C1CCN(S(=O)(=O)c2ccc(Br)s2)CC1 | inactive | 
78 | CC(C)Cc1[nH]c(=O)c(C#N)c2c1CCC2 | inactive | 
79 | CCC(=O)Nc1ccc2c(c1)OC[C@H](C)N(C(=O)NC(C)C)C[C@H](C)[C@H](OC)CN(C)C2=O | inactive | 
80 | CC(=O)Nc1ccc(NC(=O)[C@@H]2CCCN2S(=O)(=O)c2ccc3c(c2)OCCO3)cc1 | inactive | 
81 | Cc1cc(O)ccc1N=Cc1c(C(F)(F)F)[nH][nH]c1=O | inactive | 
82 | CC(C)(C)N1[C@@H](CC(=O)O)c2cc(C(F)(F)F)ccc2S1(=O)=O | inactive | 
83 | Oc1ccc(Cc2ccccc2Cl)c(O)c1 |  | > 39 µM (inactive)
84 | O=C1Nc2ccc(Br)cc2C1Cc1ccccc1F (stereo unspecified) |  | > 39 µM (inactive)
85 | O=C(CN1C(=O)CCC1=O)NNc1ccc2ccccc2c1 | inactive | 
86 | CC(=O)Nc1ccc(S(=O)(=O)N2CCCC(C(=O)O)C2)cc1 (stereo unspecified) | inactive | 
87 | CC(=O)C1=CCC(c2ccc(C)cc2)N(S(=O)(=O)c2ccc(C)cc2)C1 (stereo unspecified) | inactive | 
88 | Cc1noc(C)c1NC(=O)N(C)C[C@@H]1Oc2ccc(NC(=O)C3CCCCC3)cc2C(=O)N([C@@H](C)CO)C[C@H]1C | inactive | 
89 | CCOc1ccc(S(=O)(=O)NCCC(=O)NCc2ccccn2)cc1 | inactive | 
90 | O=C(O)c1ccc(/C=N/NC(=S)NCCN2CCOCC2)cc1 | inactive | 
91 | Cc1cc(C(C)(C)C)cc(CN2CCN(S(=O)(=O)c3cccs3)CC2)c1O | inactive | 
